What is called IC50 is the concentration that inhibits the measured activity by half.

For assay [1], the target named is cap-dependent endonuclease (RNP fraction containing PB1•PB2•PA complex) (Influenza A virus, UniProt P15659). The experiment in a line: Measurement of cap-dependent endonuclease (CEN) inhibitory activity. It is filed as biochemical. To be noted: RNP enzyme from A/WSN/33 virus, capped Cy3/BHQ2-labelled 30mer RNA substrate, room temperature 60 minutes.
In a further assay the test system is influenza virus. The experiment in a line: CPE inhibitory effect confirming assay. It is filed as cell-based. The note with it: unidentified influenza virus, 72 h, read-out: CPE IC50.

In the case of `CCOC(=O)CCN1CN(C(c2ccccc2)c2ccccc2)n2ccc(=O)c(O)c2C1=O` [Compound 128], the IC50 was 63 nM in assay [1] and 416 nM in the assay on influenza virus.

For `CN1C(=O)c2c(O)c(=O)c(C(=O)O)cn2C[C@H]1C(c1ccccc1)c1ccccc1` [Compound 43], the IC50 was found to be 78 nM in assay [1] and 1410 nM with influenza virus.

As to `O=C(O)c1cn2c(c(O)c1=O)C(=O)N1CCCO[C@H]1[C@@H]2C(c1ccccc1)c1ccccc1` [Compound 175], the IC50 in assay [1] is 132 nM; in the assay with influenza virus, 102 nM.
